Assay results as given in ChEMBL document CHEMBL1124969, “GABA agonists and uptake inhibitors. Synthesis, absolute stereochemistry, and enantioselectivity of (R)-(-)- and (S)-(+)-homo-beta-proline” (J Med Chem, 1990).

How the values were obtained:
GABA B receptor = GABA B receptor (Rattus norvegicus, UniProt O88871+Q9Z0U4); assay: In vitro binding affinity against Gamma-aminobutyric acid type B receptor in rat brain synaptic membranes at pH 7.4; type: cell membranes
[1] = target: GABA-A receptor; anion channel; assay: In vitro binding affinity against Gamma-aminobutyric acid A receptor in rat brain synaptic membranes at pH 7.1; type: cell membranes

GABA B receptor, sequence (Q9Z0U4 whole entry): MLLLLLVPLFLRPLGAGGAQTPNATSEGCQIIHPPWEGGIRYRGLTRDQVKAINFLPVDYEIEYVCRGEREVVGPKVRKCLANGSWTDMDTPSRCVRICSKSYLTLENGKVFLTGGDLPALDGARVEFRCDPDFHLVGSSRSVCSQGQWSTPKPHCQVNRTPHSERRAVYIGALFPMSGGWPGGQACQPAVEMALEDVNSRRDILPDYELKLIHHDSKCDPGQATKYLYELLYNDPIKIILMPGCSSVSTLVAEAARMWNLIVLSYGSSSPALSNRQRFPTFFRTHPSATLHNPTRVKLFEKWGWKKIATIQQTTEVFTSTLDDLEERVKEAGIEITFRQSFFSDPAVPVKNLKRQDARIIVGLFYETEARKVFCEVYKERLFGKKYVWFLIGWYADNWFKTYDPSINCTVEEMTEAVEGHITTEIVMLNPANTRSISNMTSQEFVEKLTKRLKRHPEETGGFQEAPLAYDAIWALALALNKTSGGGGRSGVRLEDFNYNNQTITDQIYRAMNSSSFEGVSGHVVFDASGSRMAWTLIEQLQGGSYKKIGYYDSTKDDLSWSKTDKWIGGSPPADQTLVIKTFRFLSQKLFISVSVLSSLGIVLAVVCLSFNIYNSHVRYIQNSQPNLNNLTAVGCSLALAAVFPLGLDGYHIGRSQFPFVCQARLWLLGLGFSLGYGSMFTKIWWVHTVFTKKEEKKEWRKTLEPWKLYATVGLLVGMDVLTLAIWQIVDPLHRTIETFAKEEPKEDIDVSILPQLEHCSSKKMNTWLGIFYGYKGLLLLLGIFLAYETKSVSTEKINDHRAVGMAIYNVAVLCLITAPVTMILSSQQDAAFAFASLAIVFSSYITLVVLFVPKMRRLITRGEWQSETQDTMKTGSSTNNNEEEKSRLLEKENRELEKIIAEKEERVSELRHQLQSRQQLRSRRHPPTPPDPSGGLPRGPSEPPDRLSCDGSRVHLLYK
GABA B receptor, sequence (O88871 whole entry): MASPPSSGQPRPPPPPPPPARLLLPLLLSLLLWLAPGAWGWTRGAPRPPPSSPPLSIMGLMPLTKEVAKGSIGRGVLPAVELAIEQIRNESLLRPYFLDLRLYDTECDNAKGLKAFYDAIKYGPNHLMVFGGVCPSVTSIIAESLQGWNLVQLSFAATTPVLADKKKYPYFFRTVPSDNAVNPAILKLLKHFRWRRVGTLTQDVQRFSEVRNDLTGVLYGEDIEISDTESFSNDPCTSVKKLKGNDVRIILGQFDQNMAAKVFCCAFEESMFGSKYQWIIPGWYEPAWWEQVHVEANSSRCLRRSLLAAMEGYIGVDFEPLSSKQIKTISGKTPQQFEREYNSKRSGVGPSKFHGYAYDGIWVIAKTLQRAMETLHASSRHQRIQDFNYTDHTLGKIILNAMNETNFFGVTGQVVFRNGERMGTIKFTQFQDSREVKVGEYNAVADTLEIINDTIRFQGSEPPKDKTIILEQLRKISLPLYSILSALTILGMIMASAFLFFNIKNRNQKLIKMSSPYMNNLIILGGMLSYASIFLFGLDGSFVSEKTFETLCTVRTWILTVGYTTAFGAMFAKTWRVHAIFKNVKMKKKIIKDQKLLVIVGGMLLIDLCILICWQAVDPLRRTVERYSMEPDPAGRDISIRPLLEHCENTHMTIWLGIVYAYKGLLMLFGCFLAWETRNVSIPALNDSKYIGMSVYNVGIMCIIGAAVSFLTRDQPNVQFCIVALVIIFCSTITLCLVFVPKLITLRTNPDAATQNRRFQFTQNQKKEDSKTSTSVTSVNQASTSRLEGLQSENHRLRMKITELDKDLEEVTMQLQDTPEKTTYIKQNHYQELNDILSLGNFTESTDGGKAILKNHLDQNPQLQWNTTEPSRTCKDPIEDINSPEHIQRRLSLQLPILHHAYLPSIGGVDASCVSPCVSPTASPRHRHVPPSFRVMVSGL

| SMILES | IC50 (GABA B receptor) [µM] | IC50 [1] [nM] |
| --- | --- | --- |
| O=C(O)CC1CCNC1 (racemic) | 14.1 | 200 |
| O=C(O)C[C@H]1CCNC1 | > 100 | 70 |
| O=C(O)C[C@@H]1CCNC1 | 7.8 | 900 |
